The numbers were not newly measured in US20250089716A1, “IMMEDIATE-RELEASE PESTICIDE FORMULATION” (priority 2022, published 2025), which cites them from elsewhere.

For this series the following is noted: extender component; unit not given.
Turning to `[Cl-].[K+]` [Potassium chloride], the Water solubility was 34 g/100 ml. Consider `OC[C@@H](O)[C@@H](O)[C@H](O)[C@@H](O)CO` [Sorbitol], for which the Water solubility was 235 g/100 ml.

In the case of `OC[C@H]1O[C@@](CO)(O[C@H]2O[C@H](CO)[C@@H](O)[C@H](O)[C@H]2O)[C@@H](O)[C@@H]1O` [Sucrose], the Water solubility is 202 g/100 ml. On to `NC(N)=O` [Urea], for which the Water solubility is reported as 100 g/100 ml. Regarding `O=C[C@H](O)[C@@H](O)[C@H](O)CO` [Xylose], the Water solubility was 133 g/100 ml. For `[Cl-].[Cl-].[Zn+2]` [Zinc chloride], the Water solubility is listed as 395 g/100 ml. As for Flactose, the Water solubility is listed as 375 g/100 ml.
